{"source": "paper PMC4557289", "about": "“Thymoproteasomes produce unique peptide motifs for positive selection of CD8^+ T cells” (Nature Communications, 2015)", "key": {"[1]": {"test_system": "OT-I TCR", "test": "agonist activity assay (T-cell stimulation, CD69), mature OT-I cells", "format": "cell-based, mouse", "settings": "splenocytes from Rag^−/− OT-I TCR transgenic mice (n=3), peptide 5 h, CD69 on CD8^+CD44^lo cells; Fig. 6d; result in words", "experimental": "Spleen cells from Rag1^−/− OT-I TCR transgenic mice (8-week-old females) were cultured in the presence of peptides for 5 h. CD69 expression on CD8^+CD44^lo cells was analysed using flow cytometry using anti-CD69 antibodies (H1.2F3; BD Pharmingen, 10 μg ml^−1)."}, "[2]": {"test_system": "OT-I TCR", "test": "CD4/CD8 dulling assay, OT-I thymocytes", "format": "cell-based, mouse", "settings": "thymocytes from Tap1^−/− OT-I TCR-transgenic mice (n=3) with peptide and irradiated B6-Ly5.1 splenocytes, 18 h, flow cytometry; Fig. 6c; result in words", "experimental": "Dulling assay was performed as described[45][46] with minor modifications. Thymocytes from Tap1^−/− OT-I TCR transgenic mice were stimulated in the presence of peptides and irradiated splenocytes from B6-Ly5.1 mice (CD45.1^+CD45.2^−). Female mice at 6–8 weeks of age were used for experiments. After 18 h, thymocytes were stained with antibodies specific for CD4 (GK1.5), CD8 (53-6.7), CD45.1 (A20) and CD45.2 (104) and analysed using flow cytometry (antibodies were obtained from Biolegend and used at 10 μg ml^−1). Specific dulling of CD4 and CD8 expression induced by peptide stimulation was calculated as previously described."}, "[3]": {"test_system": "thymus lobes from Tap1^−/− OT-I TCR transgenic mice", "test": "fetal thymus organ culture (FTOC) of OT-I thymocytes", "format": "cell-based, mouse", "settings": "E15 thymus lobes, peptide 20 μM, 3 days, result in words", "experimental": "FTOC was essentially performed as described previously. Embryonic mice on day 15 of gestation were obtained from Tap1^−/− OT-I TCR transgenic mice. Thymus lobes were cultured on Isopore membrane filters (Millipore) placed on Gelfoam sponge (Pfizer) floated in medium. Peptides were added at a concentration of 20 μM. After 3 days in the culture, thymocytes were stained with antibodies specific for CD4 (GK1.5), CD8 (53-6.7) and Vα2 (B20.1) and analysed using flow cytometry; staining antibodies were obtained from Biolegend and were used at 10 μg ml^−1."}, "[4]": {"test_system": "OT-I thymocytes", "settings": "known classification of OVAp and variants, Fig. 6a; cited from earlier work", "source_text": "To examine whether these peptide features play roles in thymic selection, we employed the OVA-specific TCR transgenic line OT-I, which is the best-studied model of amino-acid substitution in MHC-associated peptides for thymic selection of functionally competent MHC-I-restricted T cells. […] We then tested OVAp variant peptides with tCP ... || Figure 6 OVAp peptide variants with tCP-dependent motifs show lower affinities to OT-I TCR. (a) List of OVAp variants used for assays in b–d and Fig. 7a,b. (b) Binding of peptide/H-2K^b tetramers to CD4/CD8 double-positive thymocytes from Tap1^−/− OT-I TCR-transgenic mice. (c) Dulling of CD4/CD8 co-receptors in OT-I thymocytes by OVAp variants. Thymocytes from Tap1^−/− OT-I TCR-transgenic mice (n=3) were stimulated in the presence of peptides at indicated concentrations and irradiated splenocytes from B6-Ly5.1 mice. (d) Activation of mature OT-I cells by OVAp variants. Splenocytes from Rag2^−/ ..."}, "[5]": {"test_system": "OT-I TCR", "test": "MHC-tetramer-binding assay (peptide/H-2K^b tetramers)", "parameters": "species or system mouse", "settings": "peptide/H-2K^b tetramers on CD4/CD8 double-positive thymocytes from Tap1^−/− OT-I TCR-transgenic mice, 100 μM cytochalasin D, 37 °C, 90 min, flow cytometry; Fig. 6b; result in words", "experimental": "CD4/CD8 double-positive thymocytes from Tap1^−/− OT-I TCR transgenic mice (6- to 8-week-old females) were stained with indicated peptide-K^b tetramers (MBL) in the presence of 100 μM cytochalasin D (Sigma-Aldrich) at 37 °C for 90 min (refs [31], [44]) and were analysed using flow cytometry."}}, "note": "Entries after “also recorded” stand apart in the source; their conditions may differ."}
{"sequence": "SIINFEKL [OVAp]", "values": [{"measurement": "affinity to OT-I TCR by agonist activity assay", "setting": "[1]", "result": "high affinity"}, {"measurement": "affinity to OT-I TCR by CD4/CD8 dulling assay", "setting": "[2]", "result": "high affinity"}, {"measurement": "CD4/CD8 double-positive cells in FTOC", "setting": "[3]; Fig. 7a,b", "result": "depletion of CD4/CD8 double-positive cells"}, {"measurement": "number of OT-I TCR^high (Vα2^high) CD8 single-positive thymocytes in FTOC, compared with unrelated peptide gp33", "setting": "[3]; Fig. 7b, n=3, Student's t-test", "result": "clear decrease"}, {"measurement": "Effects on DP thymocytes (thymic selection of OT-I thymocytes)", "setting": "[4]", "result": "mediates negative selection; also recorded: Negative selector, original Ag"}, {"measurement": "affinity to OT-I TCR by MHC-tetramer-binding assay", "setting": "[5]", "result": "high affinity"}]}
